These results are taken from patent publication US20240254118A1, “PRMT5 INHIBITORS AND USES THEREOF” (Gilead Sciences, Inc., priority 2022, published 2024).

In assay [1] the test system is SDMA signal (PRMT5 inhibition) in HCT116 MTAP-deleted cells. The experiment in a line: Symmetric di-methyl arginine image-based high content screen assay (SDMA assay), HCT116 MTAP-deleted. Format: cell-based. Conditions: SDMA assay; for EC50: Homo sapiens, HCT-116, 72 h, 3 days of treatment, cell line not given, taken as HCT116 MTAP-deleted, read-out: EC50 (SDMA assay); for EC50 selectivity (SDMA assay): taken as HCT116 WT versus MTAP-deleted. Summed up:
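Read-out: per-cell mean SDMA immunofluorescence (Alexa Fluor 488 secondary), cells segmented by DAPI on a high-content imager. Compound exposure in HCT116 MTAP-deleted cells lasted until fixation on Day 3; overnight 4° C primary anti-SDMA antibody staining.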

Assay [2] deals with HCT116 MTAP-deleted cells. The experiment in a line: Cell viability assay (CellTiter-Glo, 7 days), HCT116 MTAP-deleted. Conditions: Homo sapiens, HCT-116, 168 h. (In general: ATP-based viability assays read luminescence as a measure of living cells.)

For the compound `CN(C(=O)C1CC1)N(Cc1ncc(C(F)(F)F)cc1F)C(=O)c1ccc2nc(N)c3cnn(C)c3c2c1` [Example 274, 4-amino-N′-(cyclopropanecarbonyl)-N-((3-fluoro-5-(trifluoromethyl)pyridin-2-yl)methyl)-N′,1-dimethyl-1H-pyrazolo[4,3-c]quinoline-8-carbohydrazide], in assay [1], the EC50 was below 1 nM and the “EC50 selectivity (SDMA assay)” value is listed as 243. For the same compound, in assay [2], the CC50 is below 100 nM.

As for `Cc1nc2ccc(CN(C(=O)c3ccc4nc(N)c5cnn(C)c5c4c3)N(C)C(=O)C3CC3)cc2s1` [Example 275, 4-amino-N′-(cyclopropanecarbonyl)-N′,1-dimethyl-N-((2-methylbenzo[d]thiazol-6-yl)methyl)-1H-pyrazolo[4,3-c]quinoline-8-carbohydrazide], in assay [1], the EC50 was below 1 nM and the “EC50 selectivity (SDMA assay)” value came to 129. Moreover, in assay [2], the CC50 is below 100 nM.

Regarding `CN(C(=O)[C@@H]1C[C@@H]1F)N(Cc1ccc(C(F)(F)F)cn1)C(=O)c1ccc2nc(N)c3cnn(C)c3c2c1` [Example 276, 4-amino-N′-((1S,2S)-2-fluorocyclopropane-1-carbonyl)-N′,1-dimethyl-N-((5-(trifluoromethyl)pyridin-2-yl)methyl)-1H-pyrazolo[4,3-c]quinoline-8-carbohydrazide], in assay [1], the EC50 is 1 to 5 nM and the “EC50 selectivity (SDMA assay)” value came to 166. Further, the CC50 in assay [2] is below 100 nM.

In the case of `Cn1ncc2c(N)nc3ccc(C(=O)N(Cc4ccc(C(F)(F)F)cn4)NC(=O)OC(C)(C)C)cc3c21` [Example 277, tert-butyl 2-(4-amino-1-methyl-1H-pyrazolo[4,3-c]quinoline-8-carbonyl)-2-((5-(trifluoromethyl)pyridin-2-yl)methyl)hydrazine-1-carboxylate], in assay [1], the EC50 fell in the range of 1 to 5 nM and the “EC50 selectivity (SDMA assay)” value is reported as 229. In assay [2], this compound displayed a CC50 below 100 nM.

For `[2H]C([2H])([2H])N(C(=O)C1CC1)N(Cc1ncc(C(F)(F)F)cc1F)C(=O)c1ccc2nc(N)c3cnn(C([2H])([2H])[2H])c3c2c1` [Example 278, 4-amino-N′-(cyclopropanecarbonyl)-N-((3-fluoro-5-(trifluoromethyl)pyridin-2-yl)methyl)-N′,1-bis(methyl-d3)-1H-pyrazolo[4,3-c]quinoline-8-carbohydrazide], in assay [1], the EC50 is below 1 nM and the “EC50 selectivity (SDMA assay)” value amounted to 121. Further, the CC50 in assay [2] was below 100 nM.

`CN(C(=O)C1CC1)N(Cc1cnc(C(F)(F)F)c(F)c1)C(=O)c1ccc2nc(N)c3cnn(C)c3c2c1` [Example 279, 4-amino-N′-(cyclopropanecarbonyl)-N-((5-fluoro-6-(trifluoromethyl)pyridin-3-yl)methyl)-N′,1-dimethyl-1H-pyrazolo[4,3-c]quinoline-8-carbohydrazide]: in assay [1], the EC50 lay in the range of 1 to 5 nM and the “EC50 selectivity (SDMA assay)” value was 494. The compound further yielded a CC50 in assay [2] of 100 to 1000 nM.

Turning to `CCC(=O)N(CC)N(Cc1ccc(C(F)(F)F)cn1)C(=O)c1cc2c(cc1F)nc(N)c1cnn(C)c12` [Example 280, 4-amino-N′-ethyl-7-fluoro-1-methyl-N′-propionyl-N-((5-(trifluoromethyl)pyridin-2-yl)methyl)-1H-pyrazolo[4,3-c]quinoline-8-carbohydrazide], in assay [1], the EC50 is 1 to 5 nM and the “EC50 selectivity (SDMA assay)” value was determined as 31. For the same compound, in assay [2], the half-maximal cytotoxic concentration (CC50) is below 100 nM.

In the case of `CN(C(=O)C1CC1)N(Cc1ccc(C(F)(F)F)cn1)C(=O)c1ccc2nc(N)c3cn[nH]c3c2c1` [Example 281, 4-amino-N′-(cyclopropanecarbonyl)-N′-methyl-N-((5-(trifluoromethyl)pyridin-2-yl)methyl)-1H-pyrazolo[4,3-c]quinoline-8-carbohydrazide], in assay [1], the half-maximal effective concentration (EC50) was in the range of 1 to 5 nM and the “EC50 selectivity (SDMA assay)” value turned out to be 70. In assay [2], this compound returned a CC50 below 100 nM.

Consider `CN(C(=O)C1CC1)N(Cc1ccc2c(c1)OC(F)(F)O2)C(=O)c1ccc2nc(N)c3cnn(C)c3c2c1` [Example 283, 4-amino-N′-(cyclopropanecarbonyl)-N-((2,2-difluorobenzo[d][1,3]dioxol-5-yl)methyl)-N′,1-dimethyl-1H-pyrazolo[4,3-c]quinoline-8-carbohydrazide], for which, in assay [1], the EC50 was below 1 nM and the “EC50 selectivity (SDMA assay)” value was 80. For the same compound, the CC50 in assay [2] was below 100 nM.

As to `CCN(C(=O)C1CC1)N(Cc1ccc(C(F)(F)F)cn1)C(=O)c1cc2c(cc1F)nc(N)c1cnn(C)c12` [Example 286, 4-amino-N′-(cyclopropanecarbonyl)-N′-ethyl-7-fluoro-1-methyl-N-((5-(trifluoromethyl)pyridin-2-yl)methyl)-1H-pyrazolo[4,3-c]quinoline-8-carbohydrazide], in assay [1], the EC50 is below 1 nM and the “EC50 selectivity (SDMA assay)” value stood at 16. The CC50 in assay [2] was below 100 nM.

On to `CCC(=O)N(CC)N(Cc1ccc(C(F)(F)F)cn1)C(=O)c1ccc2nc(N)c3cnn(C)c3c2c1` [Example 287, 4-amino-N′-ethyl-1-methyl-N′-propionyl-N-((5-(trifluoromethyl)pyridin-2-yl)methyl)-1H-pyrazolo[4,3-c]quinoline-8-carbohydrazide], for which, in assay [1], the EC50 lay in the range of 1 to 5 nM and the “EC50 selectivity (SDMA assay)” value came to 174. In assay [2], this compound showed a CC50 below 100 nM.

Regarding `CCN(C(=O)C1CC1)N(Cc1ccc(C(F)(F)F)cn1)C(=O)c1ccc2nc(N)c3cnn(C)c3c2c1` [Example 288, 4-amino-N′-(cyclopropanecarbonyl)-N′-ethyl-1-methyl-N-((5-(trifluoromethyl)pyridin-2-yl)methyl)-1H-pyrazolo[4,3-c]quinoline-8-carbohydrazide], in assay [1], the EC50 was below 1 nM and the “EC50 selectivity (SDMA assay)” value worked out at 267. This compound yielded a CC50 in assay [2] below 100 nM.

Take `CC(=O)N(C)N(Cc1cccc2c1nnn2C)C(=O)c1ccc2nc(N)c3cnn(C)c3c2c1` [Example 289, N′-acetyl-4-amino-N′,1-dimethyl-N-((1-methyl-1H-benzo[d][1,2,3]triazol-4-yl)methyl)-1H-pyrazolo[4,3-c]quinoline-8-carbohydrazide]: in assay [1], the EC50 was in the range of 1 to 5 nM and the “EC50 selectivity (SDMA assay)” value is 155. The CC50 in assay [2] lay within 100 to 1000 nM.

Take `Cn1ncc2c(N)nc3ccc(C(=O)N(Cc4ccc(C(F)(F)F)cn4)N4CCOCC4(C)C)cc3c21` [Example 292, 4-amino-N-(3,3-dimethylmorpholino)-1-methyl-N-((5-(trifluoromethyl)pyridin-2-yl)methyl)-1H-pyrazolo[4,3-c]quinoline-8-carboxamide]: in assay [1], the EC50 fell in the range of 1 to 5 nM and the “EC50 selectivity (SDMA assay)” value was found to be 80. Moreover, the CC50 in assay [2] is 100 to 1000 nM.

For `C[C@@H]1CN(N(Cc2ccc(C(F)(F)F)cn2)C(=O)c2cc3c(cc2F)nc(N)c2cnn(C)c23)C[C@H](C)O1` [Example 293, 4-amino-N-((2S,6R)-2,6-dimethylmorpholino)-7-fluoro-1-methyl-N-((5-(trifluoromethyl)pyridin-2-yl)methyl)-1H-pyrazolo[4,3-c]quinoline-8-carboxamide], in assay [1], the EC50 is below 1 nM and the “EC50 selectivity (SDMA assay)” value is recorded as 9. This compound also yielded a CC50 in assay [2] below 100 nM.

As for `Cn1ncc2c(N)nc3cc(F)c(C(=O)N(Cc4ccc(C(F)(F)F)cn4)NC(=O)C4(F)CC4)cc3c21` [Example 294, 4-amino-7-fluoro-N′-(1-fluorocyclopropane-1-carbonyl)-1-methyl-N-((5-(trifluoromethyl)pyridin-2-yl)methyl)-1H-pyrazolo[4,3-c]quinoline-8-carbohydrazide], in assay [1], the EC50 was below 1 nM and the “EC50 selectivity (SDMA assay)” value turned out to be 97. In assay [2], this compound returned a CC50 below 100 nM.

As for `Cn1ncc2c(N)nc3ccc(C(=O)N(Cc4ccc(C(F)(F)F)cn4)n4ccc5cccnc54)cc3c21` [Example 295, 4-amino-1-methyl-N-(1H-pyrrolo[2,3-b]pyridin-1-yl)-N-((5-(trifluoromethyl)pyridin-2-yl)methyl)-1H-pyrazolo[4,3-c]quinoline-8-carboxamide], in assay [1], the EC50 was below 1 nM and the “EC50 selectivity (SDMA assay)” value is listed as 18. Also, the CC50 in assay [2] is below 100 nM.

As to `Cn1ncc2c(N)nc3cc(F)c(C(=O)N(Cc4ccc(C(F)(F)F)cn4)n4ccc5cccnc54)cc3c21` [Example 296, 4-amino-7-fluoro-1-methyl-N-(1H-pyrrolo[2,3-b]pyridin-1-yl)-N-((5-(trifluoromethyl)pyridin-2-yl)methyl)-1H-pyrazolo[4,3-c]quinoline-8-carboxamide], in assay [1], the EC50 is below 1 nM and the “EC50 selectivity (SDMA assay)” value was 27. The same compound returned a CC50 in assay [2] below 100 nM.

For `Cn1ncc2c(N)nc3ccc(C(=O)N(Cc4ccc(C(F)(F)F)cn4)N4C[C@@H]5C[C@H]4CO5)cc3c21` [Example 297, 4-amino-N-((1S,4S)-2-oxa-5-azabicyclo[2.2.1]heptan-5-yl)-1-methyl-N-((5-(trifluoromethyl)pyridin-2-yl)methyl)-1H-pyrazolo[4,3-c]quinoline-8-carboxamide], in assay [1], the EC50 fell in the range of 1 to 5 nM and the “EC50 selectivity (SDMA assay)” value was 151. In assay [2], the CC50 is 100 to 1000 nM.

`Cn1ncc2c(N)nc3cc(F)c(C(=O)N(Cc4ccc(C(F)(F)F)cn4)N4C[C@@H]5C[C@H]4CO5)cc3c21` [Example 298, 4-amino-N-((1S,4S)-2-oxa-5-azabicyclo[2.2.1]heptan-5-yl)-7-fluoro-1-methyl-N-((5-(trifluoromethyl)pyridin-2-yl)methyl)-1H-pyrazolo[4,3-c]quinoline-8-carboxamide]: in assay [1], the concentration for a half-maximal effect (EC50) is below 1 nM and the “EC50 selectivity (SDMA assay)” value was determined as 23. In assay [2], this compound yielded a CC50 below 100 nM.

As usually defined, the EC50 is the concentration that produces a half-maximal response. The term CC50 denotes the concentration giving 50% cytotoxicity. Higher therefore signals better tolerance by the cells.
